Laboratory results: PMC4383039 (Science translational medicine, 2015)
In brackets after ≈: the same amount, converted by molar mass. Several values for one entry are separate records, joined by “and”; a condition that tells them apart may be missing. Identical values can stand only once.

Legend:
Assay type in all cases: cell-based, Mycobacterium tuberculosis
[1] = system: 4-hydroxy-2-pyridone resistance mutants of Mtb
[2] = system: H37Rv∷pMV262-InhA strains; assay: microbe, parasite or virus in culture; settings: for MIC50: Mycobacterium tuberculosis, H37RV, read-out: Compound MIC50
Mtb H37Rv = system: Mtb H37Rv

CC(C)Cc1cc(O)c(-c2ccccc2)c(=O)[nH]1 [NITD-529, 4-hydroxy-6-isobutyl-3-phenylpyridin-2(1H)-one]
Compound MIC50 [1]: > 40 µM | fold more resistant than the parental H37Rv strain [1]: at least 25 fold | MIC50 [2]: 2.59 µM (≈ 0.63 µg/mL) | Mutation frequency (Mtb H37Rv): 1.2×10^-8 | frequency of resistance (Mtb H37Rv): 1 × 10^−8

CCc1cc(C(N)=S)ccn1 [ethionamide]
resistance, MIC50 fold [1]: > 3 fold

NNC(=O)c1ccncc1 [isoniazid]
resistance, MIC50 fold [1]: > 3 fold | MIC50 fold shift with the Mtb H37Rv strain [2]: 0.51 (2.04×) | MIC50 [2]: 0.51 µM (≈ 0.0699 µg/mL) | Mutation frequency (Mtb H37Rv): ∼ 1× 10^-6

[H]/N=C(/N)N[C@H]1[C@H](O)[C@@H](O)[C@H](O[C@@H]2O[C@@H](C)[C@](O)(C=O)[C@H]2O[C@@H]2O[C@@H](CO)[C@H](O)[C@@H](O)[C@@H]2NC)[C@@H](N/C(N)=N\[H])[C@@H]1O [streptomycin]
Compound MIC50 [1]: 0.1 µM and 0.09 µM and 0.08 µM and 0.06 µM | Compound MIC50 [2]: 0.084 µM and 0.079 µM and 0.075 µM | MIC50 [2]: 0.074 µM (≈ 0.043 µg/mL)
